The record followed here is US11548900B2, “Oxazino-quinazoline and oxazino-quinoline type compound, preparation method and uses thereof” (BEIJING SCITECH-MQ PHARMACEUTICALS LIMITED, priority 2018, dated 2023).

A value given as a limit tells only on which side of the number the result lay.

In one test the target is EGFR kinase (Homo sapiens (Human), UniProt P00533). Description: Inhibition of EGFR kinase activity (ULight-labeled JAK-1 (Tyr1023) peptide substrate). The format is biochemical. Conditions: EGFR kinase 0.35 nM, ATP 150 μM, 2 hours. A digest of the protocol:
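TR-FRET kinase assay: 0.35 nM EGFR, 150 μM ATP, 100 nM substrate, 2 h at room temperature in the dark after 5 min enzyme-compound preincubation, 1% DMSO. Compounds tested as 11-point 3-fold series, 2.5 μM to 0.042 nM final, duplicate; IC50 from 665/615 nm ratio-based inhibition.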

In a further test the test system is BT474 cells. Description: Inhibition of cell proliferation, BT474 (CCK-8, 72 h). The format is cell-based. Conditions: Homo sapiens, BT-474, 72 h incubation. A digest of the protocol: (§1)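 BT474 and HCC827 seeded at 10,000 and 3000 cells/well respectively, cultured overnight, then exposed to 10-point 3-fold compound dilutions (top stock 10 mM; 0.25% DMSO final) for 72 h. Viability by CCK-8, OD450; survival normalised to untreated and cell-free blanks, IC50 from curve fit.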

A further test concerns the target HER2 kinase (Homo sapiens (Human), UniProt P04626). The test can be described thus: Inhibition of HER2 kinase activity (ULight-labeled PolyGT substrate). The format is biochemical. As to conditions: HER2 kinase 10 nM, ATP 10 μM, 2 hours. A digest of the protocol:
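HER2 kinase at 10 nM with 10 μM ATP and 100 nM ULight-PolyGT, 5 min enzyme–compound preincubation, then 2 h reaction at room temperature in the dark. Compounds at 11 3-fold concentrations, 2.5 μM top to 0.042 nM, 1% DMSO, duplicates. TR-FRET 665/615 ratio; IC50 from inhibition versus DMSO and no-compound controls.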

The subject of the next test is HCC827 cells. Description: Inhibition of cell proliferation, HCC827 (CCK-8, 72 h). It counts as cell-based. As to conditions: Homo sapiens, 72 h incubation. The essentials: as §1

HER2 kinase, sequence (P04626 23-1255): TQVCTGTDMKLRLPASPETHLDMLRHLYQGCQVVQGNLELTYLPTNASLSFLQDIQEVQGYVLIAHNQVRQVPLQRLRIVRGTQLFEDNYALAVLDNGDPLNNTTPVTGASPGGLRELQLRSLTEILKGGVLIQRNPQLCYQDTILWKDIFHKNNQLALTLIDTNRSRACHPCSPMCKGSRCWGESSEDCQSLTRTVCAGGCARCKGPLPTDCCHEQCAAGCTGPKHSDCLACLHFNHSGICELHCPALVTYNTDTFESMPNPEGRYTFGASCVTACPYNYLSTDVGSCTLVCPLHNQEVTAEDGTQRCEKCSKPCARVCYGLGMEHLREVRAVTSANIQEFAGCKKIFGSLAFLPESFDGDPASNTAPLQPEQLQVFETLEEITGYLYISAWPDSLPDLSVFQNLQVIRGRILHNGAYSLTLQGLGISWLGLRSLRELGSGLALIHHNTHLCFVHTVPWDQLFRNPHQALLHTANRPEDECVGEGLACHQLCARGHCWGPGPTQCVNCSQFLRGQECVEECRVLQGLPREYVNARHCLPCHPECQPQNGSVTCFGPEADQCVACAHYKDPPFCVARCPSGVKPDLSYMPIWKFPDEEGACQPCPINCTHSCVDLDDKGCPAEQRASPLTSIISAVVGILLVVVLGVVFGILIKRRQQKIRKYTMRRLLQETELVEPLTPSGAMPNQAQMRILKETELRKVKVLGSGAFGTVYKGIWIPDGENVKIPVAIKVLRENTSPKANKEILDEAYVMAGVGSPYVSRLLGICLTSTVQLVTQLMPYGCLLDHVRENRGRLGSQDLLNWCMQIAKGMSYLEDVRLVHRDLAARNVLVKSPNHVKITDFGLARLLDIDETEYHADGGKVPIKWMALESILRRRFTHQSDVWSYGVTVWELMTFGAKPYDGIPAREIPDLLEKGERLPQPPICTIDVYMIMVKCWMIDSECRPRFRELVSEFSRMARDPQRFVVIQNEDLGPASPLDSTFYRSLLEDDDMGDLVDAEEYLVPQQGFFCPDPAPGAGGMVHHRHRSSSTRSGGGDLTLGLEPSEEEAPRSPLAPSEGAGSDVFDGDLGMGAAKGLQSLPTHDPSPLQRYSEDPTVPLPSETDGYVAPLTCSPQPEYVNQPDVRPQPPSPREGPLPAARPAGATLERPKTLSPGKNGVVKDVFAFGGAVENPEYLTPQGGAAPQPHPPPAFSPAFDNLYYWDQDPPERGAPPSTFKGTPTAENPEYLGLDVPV
EGFR kinase, sequence (P00533 25-1210): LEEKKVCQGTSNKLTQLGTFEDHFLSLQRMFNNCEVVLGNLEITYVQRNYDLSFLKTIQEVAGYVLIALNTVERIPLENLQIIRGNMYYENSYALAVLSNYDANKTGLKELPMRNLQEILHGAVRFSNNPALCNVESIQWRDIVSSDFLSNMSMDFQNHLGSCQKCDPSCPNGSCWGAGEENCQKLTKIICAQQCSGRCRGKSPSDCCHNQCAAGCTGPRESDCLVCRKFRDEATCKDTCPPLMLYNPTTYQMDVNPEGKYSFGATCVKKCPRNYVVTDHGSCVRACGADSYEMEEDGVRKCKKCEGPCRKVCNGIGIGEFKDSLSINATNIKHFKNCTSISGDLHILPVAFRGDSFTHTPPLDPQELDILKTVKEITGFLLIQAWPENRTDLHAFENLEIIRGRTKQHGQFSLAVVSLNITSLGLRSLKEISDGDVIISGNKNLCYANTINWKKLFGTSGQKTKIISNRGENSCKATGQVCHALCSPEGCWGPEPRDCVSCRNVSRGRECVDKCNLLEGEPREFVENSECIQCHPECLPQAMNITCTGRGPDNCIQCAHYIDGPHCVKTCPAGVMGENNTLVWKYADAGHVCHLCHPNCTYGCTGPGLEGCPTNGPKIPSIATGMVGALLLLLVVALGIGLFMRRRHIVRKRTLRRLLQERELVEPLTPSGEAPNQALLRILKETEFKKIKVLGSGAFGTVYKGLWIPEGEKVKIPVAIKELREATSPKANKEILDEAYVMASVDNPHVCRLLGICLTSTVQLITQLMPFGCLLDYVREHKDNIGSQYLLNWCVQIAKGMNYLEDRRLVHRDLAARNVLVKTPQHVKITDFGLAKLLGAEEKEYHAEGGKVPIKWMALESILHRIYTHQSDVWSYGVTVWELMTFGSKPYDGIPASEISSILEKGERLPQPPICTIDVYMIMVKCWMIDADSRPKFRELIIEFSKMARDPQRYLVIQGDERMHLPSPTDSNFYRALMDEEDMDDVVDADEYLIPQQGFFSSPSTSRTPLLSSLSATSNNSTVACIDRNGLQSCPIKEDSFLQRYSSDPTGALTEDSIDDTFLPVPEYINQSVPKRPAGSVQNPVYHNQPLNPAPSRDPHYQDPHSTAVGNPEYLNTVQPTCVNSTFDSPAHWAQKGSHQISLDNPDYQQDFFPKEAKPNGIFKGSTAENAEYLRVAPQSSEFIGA

For orientation: IC50 means the concentration needed to halve the response being measured. Regarding `O=C(/C=C/CN1CCCCC1)N1CCOc2c1ccc1ncnc(Nc3ccc(OCc4ccccn4)c(Cl)c3)c21` [Example 107, (E)-1-(10-((3-chloro-4-(pyridin-2-ylmethoxy)phenyl)amino)-2,3-dihydro-4H-[1,4]oxazino[2,3-f]quinazolin-4-yl)-4-(piperidin-1-yl)but-2-en-1-one], the half-maximal inhibitory concentration (IC50) against EGFR kinase was at most 50 nM; in the test on BT474 cells it was at most 50 nM; on HER2 kinase, at most 50 nM; in the test with HCC827 cells, 500 to 5000 nM.
Turning to `CC(=O)N1CCN(C/C=C/C(=O)N2CCOc3c2ccc2ncnc(Nc4ccc(OCc5ccccn5)c(Cl)c4)c32)CC1` [Example 108, (E)-4-(4-acetylpiperazin-1-yl)-1-(10-((3-chloro-4-(pyridin-2-ylmethoxy)phenyl)amino)-2,3-dihydro-4H-[1,4]oxazino[2,3-f]quinazolin-4-yl)but-2-en-1-one], the IC50 against EGFR kinase is at most 50 nM; with BT474 cells, at most 50 nM; against HER2 kinase, at most 50 nM; in the test on HCC827 cells, 50 to 500 nM.
Take `CN(C/C=C/C(=O)N1CCOc2c1ccc1ncnc(Nc3ccc(OCc4ccccn4)c(Cl)c3)c21)C1CCC1` [Example 110, (E)-1-(10-((3-chloro-4-(pyridin-2-ylmethoxy)phenyl)amino)-2,3-dihydro-4H-[1,4]oxazino[2,3-f]quinazolin-4-yl)-4-(cyclobutyl(methyl)amino)but-2-en-1-one]: the IC50 against EGFR kinase was at most 50 nM; with BT474 cells, at most 50 nM; at HER2 kinase it was at most 50 nM; with HCC827 cells, 50 to 500 nM.
For `CC(C)N(C)C/C=C/C(=O)N1CCOc2c1ccc1ncnc(Nc3ccc(OCc4ccccn4)c(Cl)c3)c21` [Example 111, (E)-1-(10-((3-chloro-4-(pyridin-2-ylmethoxy)phenyl)amino)-2,3-dihydro-4H-[1,4]oxazino[2,3-f]quinazolin-4-yl)-4-(isopropyl(methyl)amino)but-2-en-1-one], the IC50 is at most 50 nM against EGFR kinase, at most 50 nM with BT474 cells, at most 50 nM on HER2 kinase and 500 to 5000 nM in the test with HCC827 cells.
